Experimental data from patent publication US20220023436A1, “COMBINATION OF ANTIBODY-DRUG CONJUGATE WITH PARP INHIBITOR” (DAIICHI SANKYO COMPANY, LIMITED, priority 2018, published 2022).
Like-named read-outs stand apart in the source and are kept apart here.

Experiments:
[1] = test system: Human breast cancer cell line KPL-4; format: in vivo, BALB/c nude mice
Procedure: The calculation formula is as shown below.
Human breast cancer cell line KPL-4 [British Journal of Cancer, (1999) 79 (5/6).
Incidentally, in the following evaluation examples relating to antitumor studies, unless otherwise described, the studies are performed by the procedure used in this evaluation example.

[2] = test system: Human ovarian cancer cell line OV-90; experiment: Antitumor study (9), subcutaneously transplanted OV-90 cells, CDH6-ADC (1); settings: OV-90 model, Day 17 after administration, single administration group; cachexia-like weight loss when tumor size exceeds 1500 mm^3
Procedure: (§3) Measurement and calculation formula: In all studies, the major axis and minor axis of tumors were measured twice a week with an electronic digital caliper (CD15-CX, Mitutoyo Corp.), and the tumor volume (mm^3) was calculated. The calculation formula is as shown below.
(§4) Tumor growth inhibition (%)=100×(1−T/C) • T: Average tumor volume of mice of test substance administration group • C: Average tumor volume of mice of control group
Talazoparib was dissolved with DMSO, diluted with 0.5% hydroxypropyl methylcellulose, and orally administered in a fluid volume of 10 mL/kg. […] Veliparib was dissolved with a 0.05M CH COON solution and orally administered in a fluid volume of 10 mL/kg.
Human ovarian cancer cell line OV-90, which was purchased from ATCC, was suspended into physiological saline, subcutaneously transplanted at 1×10^7 cells into the right side of female nude mice, and the mice were randomly grouped 14 days after the transplantation (Day 0). […] Single administration groups of each drug, a combined administration group, and a solvent administration group as a control group were set up.

[3] = test system: Human breast cancer cell line MX-1; format: in vivo; settings: MX-1 s.c. in nude mice; HER2-ADC (1) 3 mg/kg iv Day 0; olaparib 100 mg/kg po, talazoparib 0.4 mg/kg po once a day, five times a week, two weeks
Procedure: (§5) Talazoparib was dissolved with dimethyl acetamide, diluted with 5% Kolliphor HS15/Dulbecco's phosphate-buffered saline, and orally administered in a fluid volume of 10 mL/kg.
Human breast cancer cell line MX-1, which was purchased from CLS (Cell Lines Service), was suspended into 50% Matrigel matrix, subcutaneously transplanted at 5×10^6 cells into the right side of female nude mice, and the mice were randomly grouped 13 days after the transplantation (Day 0). The HER2-ADC (1) was intravenously administered to the tail vein at a dose of 3 mg/kg on Day 0. […] Single administration groups of each drug, a combined administration group, and a solvent administration group as a control group were set up.

[4] = test system: Human gastric cancer cell line NCI-N87; format: in vivo, BALB/c nude mice; settings: NCI-N87 s.c. in nude mice; HER2-ADC (1) 1 mg/kg iv Day 0; olaparib 50 mg/kg, talazoparib 0.4 mg/kg once a day, five times a week, two weeks
Procedure: as §3
(§6) Tumor volume (mm^3)=1/2×Major axis (mm)×[Minor axis (mm)]^2
Talazoparib was dissolved with DMSO, diluted with 0.5% hydroxypropyl methylcellulose, and orally administered in a fluid volume of 10 mL/kg.
Human gastric cancer cell line NCI-N87, which was purchased from ATCC (American Type Culture Collection), was suspended into physiological saline, subcutaneously transplanted at 1×10^7 cells into the right side of female nude mice, and the mice were randomly grouped 6 days after the transplantation (Day 0). […] Single administration groups of each drug, a combined administration group, and a solvent administration group as a control group were set up.

[5] = test system: Human breast cancer cell line MX-1; experiment: Antitumor study (6), subcutaneously transplanted MX-1 cells, HER3-ADC (1); format: in vivo; settings: MX-1 s.c. in nude mice; HER3-ADC (1) 3 mg/kg iv Day 0, 7, 15; olaparib 100 mg/kg po, talazoparib 0.4 mg/kg po once a day, five times a week, two weeks
Procedure: as §5
(§7) In Examples 16 and 17, HER3-ADC (1) was diluted with ABS buffer (10 mM acetate buffer (pH 5.5), 5% sorbitol), and intravenously administered in a fluid volume of 10 mL/kg to the tail vein.
Human breast cancer cell line MX-1 was suspended into 50% Matrigel matrix, subcutaneously transplanted at 5×10^6 cells into the right side of female nude mice, and the mice were randomly grouped 13 days after the transplantation (Day 0). The HER3-ADC (1) was intravenously administered to the tail vein at a dose of 3 mg/kg on Day 0, Day 7 and Day 15. […] Single administration groups of each drug, a combined administration group, and a solvent administration group as a control group were set up.

[6] = test system: Human breast cancer cell line HCC70; experiment: Antitumor study (7), subcutaneously transplanted HCC70 cells, HER3-ADC (1); format: in vivo; settings: HCC70 s.c. in nude mice; HER3-ADC (1) 10 mg/kg iv Day 0, 7, 14; olaparib 100 mg/kg po, talazoparib 0.4 mg/kg po once a day, five times a week, two weeks
Procedure: as §5, §7
Human breast cancer cell line HCC70 was suspended into physiological saline, subcutaneously transplanted at 1×10^7 cells into the right side of female nude mice, and the mice were randomly grouped 13 days after the transplantation (Day 0). The HER3-ADC (1) was intravenously administered to the tail vein at a dose of 10 mg/kg on Day 0, Day 7 and Day 14. […] Single administration groups of each drug, a combined administration group, and a solvent administration group as a control group were set up.

[7] = test system: Human ovarian cancer cell line SK-OV-3; format: in vivo, BALB/c nude mice; settings: SK-OV-3 s.c. in nude mice; HER2-ADC (1) 3 mg/kg iv Day 0 and Day 14; olaparib 60 mg/kg, talazoparib 0.4 mg/kg once a day, five times a week, three weeks
Procedure: as §3, §6
(§8) The HER2-ADC (1) was diluted with ABS buffer (10 mM acetate buffer [pH 5.5], 5% sorbitol), and intravenously administered in a fluid volume of 10 mL/kg to the tail vein. […] Talazoparib was dissolved with DMSO, diluted with 0.5% hydroxypropyl methylcellulose, and orally administered in a fluid volume of 10 mL/kg.
Human ovarian cancer cell line SK-OV-3 cells, which were purchased from ATCC (American Type Culture Collection), were maintained by nude mouse transplantation, subcutaneously transplanted in the form of a tumor mass of solid tumor (3×3×3 mm) into the right side of female nude mice, and the mice were randomly grouped 19 days after the transplantation (Day 0). HER2-ADC (1) was intravenously administered to the tail vein at a dose of 3 mg/kg on Day 0 and Day 14. […] Single administration groups of each drug, a combined administration group, and a solvent administration group as a control group were set up.

[8] = test system: Human breast cancer cell line HCC1806; settings: mouse, in vivo
Procedure: as §3, §6
Tumor growth inhibition (TGI) was calculated in accordance with the following calculation formula.
as §4
Rucaparib (camsylate) was dissolved with DMSO, diluted with physiological saline, and orally administered in a fluid volume of 10 mL/kg. Talazoparib was dissolved with DMSO, diluted with 10% N,N-Dimethylacetamide/5% Kolliphor HS 15/Dulbecco's Phosphate-Buffered Saline, and orally administered in a fluid volume of 10 mL/kg.
Human breast cancer cell line HCC1806, which was Purchased from ATCC, was suspended into physiological saline, subcutaneously transplanted at 1×10^6 cells into the right side of female nude mice, and the mice were randomly grouped 10 days after the transplantation (Day 0). […] Single administration groups of each drug, a combined administration group, and a solvent administration group as a control group were set up, and tumor growth inhibition (TGI) on Day 21 was calculated.

[9] = test system: Human breast cancer cell line JIMT-1; settings: mouse, in vivo
Procedure: Measurement and calculation formula: In all studies, the major axis and minor axis of tumors were measured twice a week with an electronic digital caliper (CD15-CX, Mitutoyo Corp.), and the tumor volume (mm^3) was calculated.
as §6, §8
Human breast cancer cell line JIMT-1, which was purchased from DSMZ (Deutsche Sammlung von Mikroorganismen and Zellkulturen GmbH), was suspended into physiological saline, subcutaneously transplanted at 5×10^6 cells into the right side of female nude mice, and the mice were randomly grouped 10 days after the transplantation (Day 0). The HER2-ADC (1) was intravenously administered to the tail vein at a dose of 10 mg/kg on Day 0. […] Single administration groups of each drug, a combined administration group, and a solvent administration group as a control group were set up.

[10] = test system: Human breast cancer cell line KPL-4; format: cell-based; settings: KPL-4 cell line
Procedure: (§1) For combination effects, differences between estimates of additive effects from the Loewe model (Greco W R. et al., Pharmacol. Rev. 1995 June; 47 (2): 331-85) and cell growth inhibition rates (%) subjected to sigmoid fitting were converted to matrices, and Synergy Scores were calculated from the matrix elements using a method described in the reference (Lehar J. et al., Nat Biotechnol. 2009 July; 27 (7):659-66). Besides, Synergy Score=0 indicates an additive effect; Synergy Score>0 indicates a synergistic effect; and Synergy Score<0 indicates an antagonistic effect.
Human breast cancer cell line KPL-4, which was obtained from Dr. Junichi Kurebayashi in Kawasaki Medical School [British Journal of Cancer, (1999) 79 (5/6). 707-717], was used for evaluation. […] Then, KPL-4 cells suspended at 1×10^4 cells/mL with RPMI1640 Medium containing 10% fetal bovine serum were seeded at 2.5 μL/well, and cultured at 37° C. under 5%CO2 for 6 days. After culturing, a solution of CellTiter-Glo 2.0 Assay diluted with an equivalent volume of Glo Lysis buffer, 1× was added at 2 μL/well and subjected to incubation at room temperature for an hour, followed by measurement of luminescence intensity of each well.

[11] = test system: Human pancreatic cancer cell line BxPC-3; format: cell-based; settings: BxPC-3 cell line
Procedure: as §1
(§2) Human pancreatic cancer cell line BxPC-3, which was obtained from ATCC, was used for evaluation. […] Then, BxPC-3 cells suspended at 4×10^4 cells/mL with RPMI1640 Medium containing 10% fetal bovine serum were seeded at 2.5 μL/well, and cultured at 37° C. under 5%CO2 for 6 days. After culturing, a solution of CellTiter-Glo 2.0 Assay (Promega) diluted with an equivalent volume of Glo Lysis buffer, 1× (Promega) was added at 2 μL/well and subjected to incubation at room temperature for an hour, followed by measurement of luminescence intensity of each well.

[12] = test system: Human breast cancer cell line HCC70; format: cell-based
Procedure: as §1
as §2, with “breast” for “pancreatic”, “HCC70,” for “BxPC-3,”, “HCC70” for “BxPC-3”, “Assay” for “Assay (Promega)”, “1×” for “1× (Promega)”

[13] = test system: Human gastric cancer cell line NCI-N87; format: cell-based
Procedure: Human gastric cancer cell line NCI-N87, which was obtained from ATCC (American Type Culture Collection), was used for evaluation. […] Then, NCI-N87 cells suspended at 4×10^4 cells/mL with RPMI1640 Medium containing 10% fetal bovine serum were seeded at 2.5 μL/well, and cultured at 37° C. under 5%CO2 for 6 days.
After culturing, a solution of CellTiter-Glo 2.0 Assay (Promega) diluted with an equivalent volume of Glo Lysis buffer, 1× (Promega) was added at 2 μL/well and subjected to incubation at room temperature for an hour, followed by measurement of luminescence intensity of each well.
Cell growth inhibition rate […] in each condition was calculated using the following formula: […]
T: average luminescence intensity of wells added with each sample
B: average luminescence intensity of wells added with DMSO and medium
C: average luminescence intensity of wells added with DMSO and cells
Furthermore, sigmoid fitting was performed for the concentration-dependent transition of cell growth inhibition rate in each combination condition using Genedata Screener Analyzer Version 14 (Genedata, hereinafter referred to as Screener).
as §1

[14] = test system: Human lung cancer cell line EBC-1; format: cell-based; settings: EBC-1 cell line
Procedure: as §1
Human lung cancer cell line EBC-1, which was obtained from Health Science Research Resources Bank (current Japanese Collection of Research Bioresources [JCRB] Cell Bank), was used for evaluation. […] Then, EBC-1 cells suspended at 2×10^4 cells/mL with RPMI1640 Medium containing 10% fetal bovine serum were seeded at 2.5 μL/well, and cultured at 37° C. under 5%CO2 for 6 days. After culturing, a solution of CellTiter-Glo 2.0 Assay diluted with an equivalent volume of Glo Lysis buffer, 1× was added at 2 μL/well and subjected to incubation at room temperature for an hour, followed by measurement of luminescence intensity of each well.

[15] = KPL-4 s.c. in nude mice, last day of study, HER2-ADC (1) 7.5 mg/kg iv Day 0, olaparib 50 mg/kg ip, niraparib 50 mg/kg po, talazoparib 0.4 mg/kg po, rucaparib (camsylate) 150 mg/kg po, once a day, five times a week, two weeks
[16] = 6 days, rucaparib (phosphate), >0 synergistic
[17] = all combinations with olaparib, talazoparib, rucaparib, niraparib

## CNCc1ccc(-c2[nH]c3cc(F)cc4c3c2CCNC4=O)cc1 [rucaparib]
[1]; [15]
  tumor growth inhibition (TGI), single administration: 42%
[2]
  mice euthanized due to weight loss: 1 case out of 6 cases

## O=C(c1cc(Cc2n[nH]c(=O)c3ccccc23)ccc1F)N1CCN(C(=O)C2CC2)CC1 [olaparib]
[3]
  TGI, single administration: 44%
[1]; [15]
  tumor growth inhibition (TGI), single administration: 21%
[4]
  TGI, single administration: 26%
[5]
  TGI, single administration: 23%
[6]
  TGI, single administration: 18%
[7]
  TGI, single administration: 15%

## Cn1ncnc1[C@H]1c2n[nH]c(=O)c3cc(F)cc(c23)N[C@@H]1c1ccc(F)cc1 [talazoparib]
[3]
  TGI, single administration: 47%
[8]
  TGI, single administration: 27%
[1]; [15]
  tumor growth inhibition (TGI), single administration: 31%
[9]
  TGI, single administration: 13%
[4]
  TGI, single administration: -2%
[5]
  TGI, single administration: 49%
[6]
  TGI, single administration: 19%
[7]
  TGI, single administration: 12%

## CC[C@@]1(O)C(=O)OCc2c1cc1n(c2=O)Cc2c-1nc1cc(F)c(C)c3c1c2[C@@H](NC(=O)CO)CC3 [Compound (1)]
[10]; 6 days, >0 synergistic
  Synergy Score of combination with Niraparib: 3.68
  Synergy Score of combination with Olaparib: 3.97
  Synergy Score of combination with Talazoparib: 4.86
[10]; [16]
  Synergy Score of combination with Rucaparib: 4.97
[10]; [17]
  combination effect in cell growth inhibition study: synergistic effects
[11]; 6 days, >0 synergistic
  Synergy Score of combination with Niraparib: 1.85
  Synergy Score of combination with Olaparib: 1.56
  Synergy Score of combination with Talazoparib: 3.25
[11]; [16]
  Synergy Score of combination with Rucaparib: 2.15
[11]; [17]
  combination effect in cell growth inhibition study: synergistic effects
[12]; 6 days, >0 synergistic
  Synergy Score of combination with Niraparib: 1.61
  Synergy Score of combination with Olaparib: 1.98
  Synergy Score of combination with Talazoparib: 4.61
[12]; [16]
  Synergy Score of combination with Rucaparib: 2.48
[12]; [17]
  combination effect in cell growth inhibition study: synergistic effects
[13]; 6 days, >0 synergistic
  Synergy Score of combination with Niraparib: 1.23
  Synergy Score of combination with Talazoparib: 4.58
[13]; 6 days, >0 synergistic, 0 additive, <0 antagonistic
  Synergy Score of combination with Olaparib: 3.21
[13]; [16]
  Synergy Score of combination with Rucaparib: 1.93
[13]; [17]
  combination effect in cell growth inhibition study: synergistic effects
[14]; 6 days, >0 synergistic
  Synergy Score of combination with Niraparib: 3.17
  Synergy Score of combination with Olaparib: 3.39
  Synergy Score of combination with Talazoparib: 5.66
[14]; [16]
  Synergy Score of combination with Rucaparib: 4.41
[14]; [17]
  combination effect in cell growth inhibition study: synergistic effects

## NC(=O)c1cccc2cn(-c3ccc([C@@H]4CCCNC4)cc3)nc12 [niraparib]
[1]; mouse, in vivo
  tumor growth inhibition (TGI), single administration: 39%
[2]
  mice euthanized due to weight loss: 1 case out of 6 cases
